Test results reported in publication PMC3928365, “Species-Selective Killing of Bacteria by Antimicrobial Peptide-PNAs” (PLoS ONE, 2014).

How the values were obtained:
Assay in all cases: Antibiotic disc susceptibility testing (BSAC method)
Conditions in all cases: antibiotic disks (Oxoid), amount per disc per antibiotic (5-30 μg)
E. coli = format: cell-based, Escherichia coli
Description: (§1) Strains were tested with twenty different antibiotic disks (Oxoid, UK) representing the major classes of antimicrobial compounds. Tests were done according to the standardized disc susceptibility testing method of the British Society for Antimicrobial Chemotherapy, [37]. The minimum inhibitory concentration (MIC) of the peptide-PNA conjugants were determined using a method modified from Hacek et al and Friedman et al: Peptide-PNA conjugants, obtained as lyophilized powder (Panagene, Korea), were dissolved in ddH20. MIC assays were performed in an ultra low-bind (Costar, UK) polystyrene 96-well plate format in a final volume of 150 µl MMLB. An extended gradient of peptide-PNA concentrations was created by combining five sets of twofold serial dilutions from four starting concentrations (10, 4.8, 3.2 […]); giving 55 final peptide-PNA concentrations which extended over five rows of the 96-well plate. All cultures were incubated at 35°C for 16 h without shaking or agitation. Each peptide-PNA MIC calculation was performed in triplicate, each replicate representing a different starting colony. Mixed-culture experiments were conducted as above with a 1×10^4 CFU/ml starting inoculum. For growth curve analysis, 200 µl cultures were grown in a BioTek PowerWave HT spectrophotometer, under constant agitation at 37°C in a 96-well plate covered with a breathable film. Growth (OD550) was monitored every 5 mins, each experiment was performed in triplicate.

S. Typhimurium = format: cell-based, Salmonella enterica serovar Typhimurium
Description: as §1

K. pneumoniae = format: cell-based, Klebsiella pneumoniae
Description: as §1

B. subtilis = format: cell-based, Bacillus subtilis
Description: as §1, with “For growth curve analysis, 200 µl cultures were grown in a BioTek PowerWave HT spectrophotometer, under constant agitation at 37°C in a 96-well plate covered with a breathable film.” left out

With `NCC[C@H](O)C(=O)N[C@@H]1C[C@H](N)[C@@H](O[C@H]2O[C@H](CN)[C@@H](O)[C@H](O)[C@H]2O)[C@H](O)[C@H]1O[C@H]1O[C@H](CO)[C@@H](O)[C@H](N)[C@H]1O` [Amikacin] the “Sensitive (S)/Resistant (R), E. coli” value (E. coli) was “S”, the “Sensitive (S)/Resistant (R), S. Typhimurium” value (“Sensitive … S. Typhimurium” for short) (S. Typhimurium) was “S” and the “Sensitive (S)/Resistant (R), K. pneumoniae” value (“Sensitive … K. pneumoniae” for short) (K. pneumoniae) was “S”.
`CC1(C)S[C@@H]2[C@H](NC(=O)[C@H](N)c3ccc(O)cc3)C(=O)N2[C@H]1C(=O)O` [Amoxicillin] was tested, and the “Sensitive (S)/Resistant (R), E. coli” value (E. coli) was “S”, the “Sensitive … S. Typhimurium” value (S. Typhimurium) was “S” and the “Sensitive … K. pneumoniae” value (K. pneumoniae) was “R”.
With `CC[C@H]1OC(=O)[C@H](C)[C@@H](O[C@H]2C[C@@](C)(OC)[C@@H](O)[C@H](C)O2)[C@H](C)[C@@H](O[C@@H]2O[C@H](C)C[C@H](N(C)C)[C@H]2O)[C@](C)(O)C[C@@H](C)CN(C)[C@H](C)[C@@H](O)[C@]1(C)O` [Azithromycin] the “Sensitive (S)/Resistant (R), E. coli” value (E. coli) was “R”, the “Sensitive … S. Typhimurium” value (S. Typhimurium) was “R” and the “Sensitive … K. pneumoniae” value (K. pneumoniae) was “R”.
For `CC1=C(C(=O)O)N2C(=O)[C@@H](NC(=O)[C@H](N)c3ccccc3)[C@H]2SC1` [Cefalexin], the “Sensitive (S)/Resistant (R), E. coli” value (E. coli) was “S”, the “Sensitive … S. Typhimurium” value (S. Typhimurium) was “S” and the “Sensitive … K. pneumoniae” value (K. pneumoniae) was “S”.
`CO/N=C(\C(=O)N[C@@H]1C(=O)N2C(C(=O)O)=C(COC(C)=O)CS[C@H]12)c1csc(N)n1` [Cefotaxime] was tested, and the “Sensitive (S)/Resistant (R), E. coli” value (E. coli) was “S”, the “Sensitive … S. Typhimurium” value (S. Typhimurium) was “S” and the “Sensitive … K. pneumoniae” value (K. pneumoniae) was “S”.
In the case of `CO/N=C(\C(=O)N[C@@H]1C(=O)N2C(C(=O)O)=C(COC(N)=O)CS[C@H]12)c1ccco1` [Cefuroxime], the “Sensitive (S)/Resistant (R), E. coli” value (E. coli) was “S”, the “Sensitive … S. Typhimurium” value (S. Typhimurium) was “S” and the “Sensitive … K. pneumoniae” value (K. pneumoniae) was “S”.
With `CCC[C@@H]1C[C@@H](C(=O)N[C@@H]([C@H]2O[C@H](SC)[C@H](O)[C@@H](O)[C@H]2O)[C@H](C)Cl)N(C)C1` [Clindamycin] the “Sensitive (S)/Resistant (R), E. coli” value (E. coli) was “R”, the “Sensitive … S. Typhimurium” value (S. Typhimurium) was “R” and the “Sensitive … K. pneumoniae” value (K. pneumoniae) was “R”.
With `CC[C@H]1OC(=O)[C@H](C)[C@@H](O[C@H]2C[C@@](C)(OC)[C@@H](O)[C@H](C)O2)[C@H](C)[C@@H](O[C@@H]2O[C@H](C)C[C@H](N(C)C)[C@H]2O)[C@](C)(O)C[C@@H](C)C(=O)[C@H](C)[C@@H](O)[C@]1(C)O` [Erythromycin] the “Sensitive (S)/Resistant (R), E. coli” value (E. coli) was “R”, the “Sensitive … S. Typhimurium” value (S. Typhimurium) was “R” and the “Sensitive … K. pneumoniae” value (K. pneumoniae) was “R”.
In the case of `CN1CCN(c2c(F)cc3c(=O)c(C(=O)O)cn(CCF)c3c2F)CC1` [Fleroxacin], the “Sensitive (S)/Resistant (R), E. coli” value (E. coli) was “S” and the “Sensitive … K. pneumoniae” value (K. pneumoniae) was “S”.
For `CNC(C)C1CCC(N)C(OC2C(N)CC(N)C(OC3OCC(C)(O)C(NC)C3O)C2O)O1` (stereo not shown) [Gentamicin], the “Sensitive (S)/Resistant (R), E. coli” value (E. coli) was “S”, the “Sensitive … S. Typhimurium” value (S. Typhimurium) was “S” and the “Sensitive … K. pneumoniae” value (K. pneumoniae) was “R”.
In the case of `C[C@@H](O)[C@H]1C(=O)N2C(C(=O)O)=C(SCCN=CN)C[C@H]12` [Imipenem], the “Sensitive (S)/Resistant (R), E. coli” value (E. coli) was “S”, the “Sensitive … S. Typhimurium” value (S. Typhimurium) was “S” and the “Sensitive … K. pneumoniae” value (K. pneumoniae) was “S”.
With `CCC[C@@H]1C[C@@H](C(=O)N[C@@H]([C@H]2O[C@H](SC)[C@H](O)[C@@H](O)[C@H]2O)[C@@H](C)O)N(C)C1` [Lincomycin] the “Sensitive (S)/Resistant (R), E. coli” value (E. coli) was “R”, the “Sensitive … S. Typhimurium” value (S. Typhimurium) was “R” and the “Sensitive … K. pneumoniae” value (K. pneumoniae) was “R”.
`COc1cccc(OC)c1C(=O)N[C@@H]1C(=O)N2[C@@H]1SC(C)(C)[C@@H]2C(=O)O` [Methicillin] was tested, and the “Sensitive (S)/Resistant (R), E. coli” value (E. coli) was “S”, the “Sensitive … S. Typhimurium” value (S. Typhimurium) was “S” and the “Sensitive … K. pneumoniae” value (K. pneumoniae) was “R”.
In the case of `CCn1cc(C(=O)O)c(=O)c2ccc(C)nc21` [Nalidixic acid], the “Sensitive (S)/Resistant (R), E. coli” value (E. coli) was “S”, the “Sensitive … S. Typhimurium” value (S. Typhimurium) was “S” and the “Sensitive … K. pneumoniae” value (K. pneumoniae) was “S”.
`CC1COc2c(N3CCN(C)CC3)c(F)cc3c(=O)c(C(=O)O)cn1c23` (stereo not shown) [Oflaxacin] was tested, and the “Sensitive (S)/Resistant (R), E. coli” value (E. coli) was “S”, the “Sensitive (S)/Resistant (R), B. subtilis” value (B. subtilis) was “S” and the “Sensitive … S. Typhimurium” value (S. Typhimurium) was “S”. The “Sensitive … K. pneumoniae” value (K. pneumoniae) was “S”.
With `CCn1cc(C(=O)O)c(=O)c2cnc(N3CCNCC3)nc21` [Pipemidic acid] the “Sensitive (S)/Resistant (R), E. coli” value (E. coli) was “S”, the “Sensitive … S. Typhimurium” value (S. Typhimurium) was “S” and the “Sensitive … K. pneumoniae” value (K. pneumoniae) was “S”.
For `[H]/N=C(/N)N[C@H]1[C@H](O)[C@@H](O)[C@H](O[C@@H]2O[C@@H](C)[C@](O)(C=O)[C@H]2O[C@@H]2O[C@@H](CO)[C@H](O)[C@@H](O)[C@@H]2NC)[C@@H](N/C(N)=N\[H])[C@@H]1O` [Streptomycin], the “Sensitive (S)/Resistant (R), E. coli” value (E. coli) was “R”, the “Sensitive … S. Typhimurium” value (S. Typhimurium) was “S” and the “Sensitive … K. pneumoniae” value (K. pneumoniae) was “S”.
With `COc1cc(Cc2cnc(N)nc2N)cc(OC)c1OC` [Trimethoprim] the “Sensitive (S)/Resistant (R), E. coli” value (E. coli) was “S”, the “Sensitive … S. Typhimurium” value (S. Typhimurium) was “S” and the “Sensitive … K. pneumoniae” value (K. pneumoniae) was “R”.
With `CN[C@H](CC(C)C)C(=O)N[C@H]1C(=O)N[C@@H](CC(N)=O)C(=O)N[C@H]2C(=O)N[C@H]3C(=O)N[C@H](C(=O)N[C@H](C(=O)O)c4cc(O)cc(O)c4-c4cc3ccc4O)[C@H](O)c3ccc(c(Cl)c3)Oc3cc2cc(c3O[C@@H]2O[C@H](CO)[C@@H](O)[C@H](O)[C@H]2O[C@H]2C[C@](C)(N)[C@H](O)[C@H](C)O2)Oc2ccc(cc2Cl)[C@H]1O` [Vancomycin] the “Sensitive (S)/Resistant (R), E. coli” value (E. coli) was “R”, the “Sensitive … S. Typhimurium” value (S. Typhimurium) was “R” and the “Sensitive … K. pneumoniae” value (K. pneumoniae) was “R”.
Neomycin was tested, and the “Sensitive (S)/Resistant (R), E. coli” value (E. coli) was “S”, the “Sensitive (S)/Resistant (R), B. subtilis” value (B. subtilis) was “S” and the “Sensitive … S. Typhimurium” value (S. Typhimurium) was “S”. The “Sensitive … K. pneumoniae” value (K. pneumoniae) was “S”.
